Entries after “also recorded” stand apart in the source; their conditions may differ.
Tested on: HIVIIIB
Experiment: HIVIIIB entry into / infection of A3.01 cells, p24 antigen
Format: cell-based, HIV
Procedure: FIG. 33. […] Cells were washed and incubated in complete medium at 5% CO2 and 37° C. for up to 10 days. […] B Concentration dependence of GSAO. […] Cells were washed, incubated in complete medium at 5% CO2 and 37° C. for 3 days and the conditioned medium collected and assayed for p24 antigen.
FIG. 34. Inhibition of HIVIIIB infection of A3.01 cells by GSAO.
A3.01 human T cells were exposed to GSAO for 30 minutes and then to HTLVIIIB virus for 2 hours after which the cells were washed and then cultured for up to 10 days. HTLVIIIB and A3.01 cells were obtained from the NIH AIDS Research and Reference Reagent Program, Rockville, Mass. Virus stocks were made and infectivity titer determined using A3.01 cells and the p24 antigen assay (Coulter, Miami, Fla.). A3.01 cells were cultured in RPMI medium containing 10% fetal calf serum. […] Cell numbers and cell viability were determined at the times specified by staining cells with trypan blue and counting using a Neubauer haemacytometer. Cell viability was measured as a percentage of live cells to total cells.

With NC(CCC(=O)NC(CSCC(=O)Nc1ccc([As]=O)cc1)C(=O)NCC(=O)O)C(=O)O (stereo not drawn) [GSAO, 4-(N-(S-glutathionylacetyl)amino)-phenylarsenoxide] the “HIVIIIB infection of A3.01 cells” value (10 μM, also in the culture medium) was “effectively blocked”, the “inhibition of HIVIIIB entry” value (100 μM, 30 minutes before virus) was “Inhibition of HIVIIIB entry; also recorded: inhibited entry” and the IC50 (Human immunodeficiency virus 1, read-out: half-maximal effect on HIVIIIB entry) was about 1000 nM.

— patent US7498406B2, “Substantially cell membrane impermeable compound and use thereof” (priority 1999, dated 2009)
